Results taken from patent publication US20240269139A1, “COMPOUNDS FOR TARGETED PROTEIN DEGRADATION OF KINASES” (DANA-FARBER CANCER INSTITUTE, INC., priority 2020, published 2024).
Like-named read-outs stand apart in the source and are kept apart here.

Legend:
Assay type in all cases: cell-based
[1] = target: T1, protein kinases (human kinome) (Homo sapiens, UniProt Q9NRH2); conditions: for logFC: SNRK (Q9NRH2)
T1 sequence (Q9NRH2 1-765): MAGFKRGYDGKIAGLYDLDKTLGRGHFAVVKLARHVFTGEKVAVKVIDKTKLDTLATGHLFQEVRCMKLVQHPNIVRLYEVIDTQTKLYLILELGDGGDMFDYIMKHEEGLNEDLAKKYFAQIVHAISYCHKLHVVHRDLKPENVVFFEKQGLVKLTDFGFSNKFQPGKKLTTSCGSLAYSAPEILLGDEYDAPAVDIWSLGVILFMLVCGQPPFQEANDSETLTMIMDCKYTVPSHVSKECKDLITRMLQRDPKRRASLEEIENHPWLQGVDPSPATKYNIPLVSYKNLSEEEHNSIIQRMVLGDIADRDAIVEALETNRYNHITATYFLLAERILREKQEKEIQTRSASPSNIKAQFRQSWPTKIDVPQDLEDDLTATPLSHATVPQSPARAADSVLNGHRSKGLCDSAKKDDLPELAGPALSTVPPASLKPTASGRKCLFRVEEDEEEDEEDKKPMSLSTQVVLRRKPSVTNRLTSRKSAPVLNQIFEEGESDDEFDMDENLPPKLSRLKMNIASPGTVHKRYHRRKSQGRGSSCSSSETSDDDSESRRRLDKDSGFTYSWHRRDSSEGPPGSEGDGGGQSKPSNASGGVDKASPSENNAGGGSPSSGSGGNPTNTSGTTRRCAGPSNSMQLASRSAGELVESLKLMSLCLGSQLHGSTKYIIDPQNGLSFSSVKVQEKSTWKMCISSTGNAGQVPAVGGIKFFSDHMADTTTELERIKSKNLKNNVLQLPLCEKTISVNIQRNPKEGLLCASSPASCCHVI

[2] = target: protein kinases (human kinome) (Homo sapiens, UniProt Q9BYT3); conditions: STK33 (Q9BYT3-1), experiment wp076
protein kinases (human kinome) (Homo sapiens, UniProt Q9BYT3), sequence (Q9BYT3 whole entry): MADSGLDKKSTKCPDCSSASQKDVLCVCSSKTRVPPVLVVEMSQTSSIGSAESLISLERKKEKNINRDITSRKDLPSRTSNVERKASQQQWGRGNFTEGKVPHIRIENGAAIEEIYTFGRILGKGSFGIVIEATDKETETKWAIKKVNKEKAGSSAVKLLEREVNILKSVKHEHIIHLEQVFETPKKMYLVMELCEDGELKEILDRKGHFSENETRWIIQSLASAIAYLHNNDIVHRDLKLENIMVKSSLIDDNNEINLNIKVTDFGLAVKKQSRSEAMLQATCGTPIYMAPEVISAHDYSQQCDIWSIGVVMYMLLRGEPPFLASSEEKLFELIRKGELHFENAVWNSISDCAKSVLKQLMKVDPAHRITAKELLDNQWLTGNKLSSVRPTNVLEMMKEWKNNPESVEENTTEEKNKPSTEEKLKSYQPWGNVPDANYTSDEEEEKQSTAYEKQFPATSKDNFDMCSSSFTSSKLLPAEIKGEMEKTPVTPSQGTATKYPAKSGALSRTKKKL

[3] = target: protein kinases (human kinome) (Homo sapiens, UniProt O14874); conditions: BCKDK (O14874)
[4] = target: T2, protein kinases (human kinome) (Homo sapiens, UniProt O00444)
T2 sequence (O00444 1-970): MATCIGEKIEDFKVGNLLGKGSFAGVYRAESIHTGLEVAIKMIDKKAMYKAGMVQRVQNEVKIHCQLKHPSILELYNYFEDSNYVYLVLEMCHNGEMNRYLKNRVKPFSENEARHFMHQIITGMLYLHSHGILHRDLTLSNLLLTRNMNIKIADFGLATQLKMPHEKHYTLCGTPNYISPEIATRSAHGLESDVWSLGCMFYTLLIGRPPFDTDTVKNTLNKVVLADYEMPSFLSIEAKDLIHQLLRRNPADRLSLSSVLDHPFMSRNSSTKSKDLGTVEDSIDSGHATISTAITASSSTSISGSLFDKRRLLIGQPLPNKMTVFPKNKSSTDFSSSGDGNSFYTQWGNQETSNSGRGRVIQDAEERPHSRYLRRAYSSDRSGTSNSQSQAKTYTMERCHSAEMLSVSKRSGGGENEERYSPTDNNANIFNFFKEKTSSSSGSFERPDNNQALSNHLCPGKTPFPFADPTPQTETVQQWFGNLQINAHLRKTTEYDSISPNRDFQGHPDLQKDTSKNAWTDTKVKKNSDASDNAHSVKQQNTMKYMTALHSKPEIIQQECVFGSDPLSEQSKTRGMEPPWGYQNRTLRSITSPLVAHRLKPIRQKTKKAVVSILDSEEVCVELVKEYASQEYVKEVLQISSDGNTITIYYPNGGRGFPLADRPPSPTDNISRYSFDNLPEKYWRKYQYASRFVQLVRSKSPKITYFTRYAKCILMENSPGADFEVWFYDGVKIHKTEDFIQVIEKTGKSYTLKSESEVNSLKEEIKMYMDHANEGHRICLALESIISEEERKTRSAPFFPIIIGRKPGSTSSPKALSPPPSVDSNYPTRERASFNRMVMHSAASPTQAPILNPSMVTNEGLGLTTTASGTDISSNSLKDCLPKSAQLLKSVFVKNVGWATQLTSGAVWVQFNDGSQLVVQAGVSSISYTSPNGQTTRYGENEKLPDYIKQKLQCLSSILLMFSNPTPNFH

[5] = target: protein kinases (human kinome) (Homo sapiens, UniProt P12931); conditions: for logFC of SRC: Accession P12931; for logFC: SRC (P12931), direction down
protein kinases (human kinome) (Homo sapiens, UniProt P12931), sequence (P12931 whole entry): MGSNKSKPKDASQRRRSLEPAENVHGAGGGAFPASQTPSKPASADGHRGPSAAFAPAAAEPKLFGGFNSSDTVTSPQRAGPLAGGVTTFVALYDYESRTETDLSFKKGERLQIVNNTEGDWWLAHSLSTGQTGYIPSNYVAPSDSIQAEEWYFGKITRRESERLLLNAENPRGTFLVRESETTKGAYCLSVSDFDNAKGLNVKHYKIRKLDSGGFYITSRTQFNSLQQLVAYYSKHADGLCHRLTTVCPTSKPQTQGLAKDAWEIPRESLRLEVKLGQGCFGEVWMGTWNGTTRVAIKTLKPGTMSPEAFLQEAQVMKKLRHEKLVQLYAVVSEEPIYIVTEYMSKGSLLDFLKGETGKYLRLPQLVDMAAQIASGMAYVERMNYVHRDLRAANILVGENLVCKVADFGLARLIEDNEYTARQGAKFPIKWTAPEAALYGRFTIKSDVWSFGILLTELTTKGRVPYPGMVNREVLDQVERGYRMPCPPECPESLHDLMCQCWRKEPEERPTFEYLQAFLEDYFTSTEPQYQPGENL

[6] = target: protein kinases (human kinome) (Homo sapiens, UniProt Q15418); conditions: for logFC: RPS6KA1 (Q15418-1), direction down
protein kinases (human kinome) (Homo sapiens, UniProt Q15418), sequence (Q15418 whole entry): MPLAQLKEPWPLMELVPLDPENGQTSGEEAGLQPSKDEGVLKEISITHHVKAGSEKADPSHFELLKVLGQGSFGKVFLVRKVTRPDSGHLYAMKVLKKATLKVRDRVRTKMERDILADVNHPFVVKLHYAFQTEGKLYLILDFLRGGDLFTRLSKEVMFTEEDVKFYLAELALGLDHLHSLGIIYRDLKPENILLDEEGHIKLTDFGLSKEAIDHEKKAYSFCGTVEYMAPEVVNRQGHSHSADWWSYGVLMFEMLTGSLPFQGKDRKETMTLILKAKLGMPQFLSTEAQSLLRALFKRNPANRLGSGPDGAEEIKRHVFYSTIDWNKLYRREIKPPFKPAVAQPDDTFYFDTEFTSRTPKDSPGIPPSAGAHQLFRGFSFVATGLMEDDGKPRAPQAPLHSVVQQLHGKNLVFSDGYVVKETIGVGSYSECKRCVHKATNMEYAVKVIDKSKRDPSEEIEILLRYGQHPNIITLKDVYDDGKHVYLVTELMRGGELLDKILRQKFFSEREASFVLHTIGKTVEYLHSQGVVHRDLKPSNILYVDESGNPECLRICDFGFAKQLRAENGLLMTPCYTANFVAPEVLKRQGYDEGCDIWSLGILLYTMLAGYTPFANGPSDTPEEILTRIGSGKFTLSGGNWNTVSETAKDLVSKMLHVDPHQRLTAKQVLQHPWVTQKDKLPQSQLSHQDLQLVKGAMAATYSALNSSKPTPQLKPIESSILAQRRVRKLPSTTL

[7] = target: protein kinases (human kinome) (Homo sapiens, UniProt O94921)
protein kinases (human kinome) (Homo sapiens, UniProt O94921), sequence (O94921 whole entry): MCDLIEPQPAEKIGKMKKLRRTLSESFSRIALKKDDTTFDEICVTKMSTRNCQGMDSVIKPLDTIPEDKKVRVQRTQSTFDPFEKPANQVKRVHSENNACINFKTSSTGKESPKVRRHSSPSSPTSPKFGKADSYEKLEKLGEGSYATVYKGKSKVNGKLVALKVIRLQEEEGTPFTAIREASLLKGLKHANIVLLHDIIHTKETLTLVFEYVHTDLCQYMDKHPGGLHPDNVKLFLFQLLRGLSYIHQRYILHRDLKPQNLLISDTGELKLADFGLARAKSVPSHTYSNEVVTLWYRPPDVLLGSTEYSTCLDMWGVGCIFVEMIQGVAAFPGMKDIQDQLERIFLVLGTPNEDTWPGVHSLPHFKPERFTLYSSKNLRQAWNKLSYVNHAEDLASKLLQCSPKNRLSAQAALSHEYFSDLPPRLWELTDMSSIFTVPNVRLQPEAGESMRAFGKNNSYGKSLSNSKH

[8] = experiment wp084, direction down
[9] = experiment wp147, 4 uM, direction down
[10] = Accession O00444, experiment wp131, direction down

Question: What does the source list for `O=C(COc1cccc2c1C(=O)N(C1CCC(=O)NC1=O)C2=O)NCCCCCCCN1CCc2cc(Nc3ncc(C4CC4)c(NCCCNC(=O)C4CCC4)n3)ccc2C1` (stereo not drawn) [BSJ.04.178]?
Answer: logFC ([1]; experiment wp134): −1.523; logFC of SNRK (Q9NRH2) ([1]; experiment wp134): −1.523

Question: With `CNC(=O)c1ccccc1Nc1cc(Nc2ccc(N3CCN(CCOCCOCCNC(=O)CNc4cccc5c4C(=O)N(C4CCC(=O)NC4=O)C5=O)CC3)cc2OC)ncc1C(F)(F)F` (stereo not drawn) [MFH.5.103.1] as the compound, how does the logFC [2] read?
Answer: −2.784

Question: And the logFC ([2]; direction down)?
Answer: −2.784

Question: With `CC(=O)c1c(C)c2cnc(Nc3ccc(N4CCN(CCOCCOCCOCCNC(=O)COc5cccc6c5C(=O)N(C5CCC(=O)NC5=O)C6=O)CC4)cn3)nc2n(C2CCCC2)c1=O` (stereo not drawn) [BSJ.03.123] as the compound, how does the logFC ([3]; experiment wp084) read?
Answer: −0.4553

Question: And the logFC [3, 8]?
Answer: −0.4553

Question: For `CS(=O)(=O)Nc1cccc(-c2csc3cnc(Nc4ccc(N5CCN(CCCCCOc6cccc7c6C(=O)N(C6CCC(=O)NC6=O)C7=O)CC5)cc4)nc23)c1` (stereo not drawn) [DB0614, N-(3-(2-((4-(4-(5-((2-(2,6-Dioxopiperidin-3-yl)-1,3-dioxoisoindolin-4-yl)oxy)pentyl)piperazin-1-yl)phenyl)amino)thieno[3,2-d]pyrimidin-7-yl)phenyl)methanesulfonamide], which “logFC PLK4” value ([4]; Accession O00444, experiment wp117, direction down) is on record?
Answer: −0.5414

Question: What about the “logFC PLK4 (O00444)” value ([4]; experiment wp117) of the same compound?
Answer: −0.5414

Question: Which results are given for `Cc1ccc(NC(=O)c2cccc(C(F)(F)F)c2)cc1N1Cc2cnc(Nc3ccc(N4CCN(Cc5cn(CCCCCOc6cccc7c6C(=O)N(C6CCC(=O)NC6=O)C7=O)nn5)CC4)nc3)nc2N(C)C1=O` (stereo not drawn) [DB0646, N-(3-(7-((6-(4-((1-(5-((2-(2,6-Dioxopiperidin-3-yl)-1,3-dioxoisoindolin-4-yl)oxy)pentyl)-1H-1,2,3-triazol-4-yl)methyl)piperazin-1-v)pyridin-3-yl)amino)-1-methyl-2-oxo-1,4-dihydropyrimido[4,5-d]pyrimidin-3(2H)-yl)-4-methylphenyl)-3-(trifluoromethyl)benzamide]?
Answer: logFC of SRC ([5]; experiment wp152): −0.3941; logFC of SRC ([5]; experiment wp160, 4 hr): −0.5186; logFC of SRC ([5]; experiment wp160, 8 hr): −0.6833; logFC ([5]; experiment wp152): −0.3941; logFC ([5]; experiment wp160, 4 hr): −0.5186; logFC ([5]; experiment wp160, 8 hr): −0.6833; logFC ([6]; experiment wp160, 8 hr): −0.413; logFC RPS6KA1 (Q15418-1) ([6]; experiment wp160, 8 hr): −0.413

Question: With `CC(C)(C)c1nc(-c2cccc(NS(=O)(=O)c3c(F)cccc3F)c2F)c(-c2ccnc(NCCOCCNC(=O)CCOCCOCCNc3cccc4c3C(=O)N(C3CCC(=O)NC3=O)C4=O)n2)s1` (stereo not drawn) [DD.03.106] as the compound, how does the logFC ([3]; experiment wp137) read?
Answer: −0.3275

Question: And the logFC ([3]; experiment wp137, direction down)?
Answer: −0.3275

Question: And the logFC ([3]; experiment wp147, 4 uM)?
Answer: −0.5831

Question: What about the logFC [3, 9] of the same compound?
Answer: −0.5831

Question: How did the “logFC of SNRK (Q9NRH2)” value ([1]; Experiment wp195) turn out when `Cc1cnc(Nc2ccc(N3CCN(CCCCCCC(=O)N[C@H](C(=O)N4C[C@H](O)C[C@H]4C(=O)N[C@@H](C)c4ccc(-c5scnc5C)cc4)C(C)(C)C)CC3)cc2)nc1Nc1cccc(S(=O)(=O)NC(C)(C)C)c1` [JWG.123] was run?
Answer: −1.197

Question: And the logFC ([1]; experiment wp195)?
Answer: −1.197

Question: What does the source list for `Cc1ccc(NC(=O)c2cccc(C(F)(F)F)c2)cc1N1Cc2cnc(Nc3ccc(N4CCN(CCCCC(=O)N[C@H](C(=O)N5C[C@H](O)C[C@H]5C(=O)N[C@@H](C)c5ccc(-c6scnc6C)cc5)C(C)(C)C)CC4)nc3)nc2N(C)C1=O` [DB1113]?
Answer: logFC ([6]; experiment wp168): −0.7297; logFC RPS6KA1 (Q15418-1) ([6]; experiment wp168): −0.7297

Question: What does the source list for `CC(C)S(=O)(=O)c1ccccc1Nc1nc(Nc2ccc(N3CCN(CCOCCOCCNC(=O)CNc4cccc5c4C(=O)N(C4CCC(=O)NC4=O)C5=O)CC3)cc2)ncc1Cl` (stereo not drawn) [TL12.186]?
Answer: logFC PLK4 [4, 10]: −1.559; logFC PLK4 ([4]; Accession O00444, experiment wp137, direction down): −1.159; logFC PLK4 ([4]; PLK4 (O00444), experiment wp137): −1.159; logFC PLK4 (O00444) ([4]; experiment wp131): −1.559; logFC ([6]; experiment wp131): −0.3562; logFC RPS6KA1 (Q15418-1) ([6]; experiment wp131): −0.3562

Question: For `Cc1ccc(NC(=O)c2cccc(C(F)(F)F)c2)cc1N1Cc2cnc(Nc3ccc(N4CCN(CCCOc5cccc6c5C(=O)N(C5CCC(=O)NC5=O)C6=O)CC4)nc3)nc2N(C)C1=O` (stereo not drawn) [DB0662], which “logFC of SRC” value ([5]; experiment wp168) is on record?
Answer: −0.9018

Question: And the “logFC of SRC (P12931)” value ([5]; Experiment wp168)?
Answer: −0.9018

Question: And the logFC ([6]; experiment wp168)?
Answer: −0.4724

Question: What about the “logFC RPS6KA1 (Q15418-1)” value ([6]; experiment wp168) of the same compound?
Answer: −0.4724

Question: For `Cc1ncsc1-c1ccc([C@H](C)NC(=O)[C@@H]2C[C@@H](O)CN2C(=O)[C@@H](NC(=O)CCOCCOCCN2CCN(c3ccc(Nc4ncc(Cl)c(Nc5ccccc5S(=O)(=O)C(C)C)n4)cc3)CC2)C(C)(C)C)cc1` [FMF.06.098.1], which “logFC PLK4” value [4, 10] is on record?
Answer: −0.7435

Question: And the “logFC PLK4 (O00444)” value ([4]; experiment wp131)?
Answer: −0.7435

Question: How did the logFC ([7]; CDK14 (O94921-1), experiment wp172) turn out when `Cc1ccc(C(=O)Nc2ccc(CN3CCN(CCCOCCOCCOCCNC(=O)COc4cccc5c4C(=O)N(C4CCC(=O)NC4=O)C5=O)CC3)c(C(F)(F)F)c2)cc1C#Cc1cnc2cccnn12` (stereo not drawn) [SB1.G.187] was run?
Answer: −1.525

Question: What about the “logFC of CDK14 (O94921-1)” value ([7]; Experiment wp172) of the same compound?
Answer: −1.525

Question: For `Cc1ncsc1-c1ccc([C@H](C)NC(=O)[C@@H]2C[C@@H](O)CN2C(=O)[C@@H](NC(=O)CCCCCN2CCc3cc(Nc4ncc(C5CC5)c(NCCCNC(=O)C5CCC5)n4)ccc3C2)C(C)(C)C)cc1` [BSJ.05.026], which “logFC of SNRK (Q9NRH2)” value ([1]; Experiment wp195) is on record?
Answer: −1.856

Question: And the logFC ([1]; experiment wp195)?
Answer: −1.856

Question: Which “logFC of SNRK (Q9NRH2)” value ([1]; Experiment wp117) does the source give for `Cc1ncsc1-c1ccc([C@H](C)NC(=O)[C@@H]2C[C@@H](O)CN2C(=O)[C@@H](NC(=O)CCCCCN2CCN(c3ccc(Nc4ncc5scc(-c6cccc(NS(C)(=O)=O)c6)c5n4)cc3)CC2)C(C)(C)C)cc1` [RSS0680, (2S,4R)-1-((S)-3,3-Dimethyl-2-(6-(4-(4-((7-(3-(methylsulfonamido)phenyl)thieno[3,2-d]pyrimidin-2-yl)amino)phenyl)piperazin-1-yl)hexanamido)butanoyl)-4-hydroxy-N—((S)-1-(4-(4-methylthiazol-5yl)phenyl)ethyl)pyrrolidine-2-carboxamide] here?
Answer: −0.6321

Question: What about the logFC ([1]; experiment wp080) of the same compound?
Answer: −0.5567

Question: What about the logFC ([1]; experiment wp117) of the same compound?
Answer: −0.6321

Question: What about the “logFC of SNRK (Q9NRH2)” value ([1]; experiment wp080) of the same compound?
Answer: −0.5567

Question: With `CN(C)C(=O)c1cc2cnc(Nc3ccc(N4CCN(CCCCNC(=O)COc5cccc6c5C(=O)N(C5CCC(=O)NC5=O)C6=O)CC4)cn3)nc2n1C1CCCC1` (stereo not drawn) [BSJ.04.132] as the compound, how does the logFC ([3]; experiment wp084) read?
Answer: −0.5188

Question: What about the logFC [3, 8] of the same compound?
Answer: −0.5188

Question: `CC(C)(C)c1nc(-c2cccc(NS(=O)(=O)c3c(F)cccc3F)c2F)c(-c2ccnc(NCCOCCNC(=O)CCOCCOCCNc3cccc4c3CN(C3CCC(=O)NC3=O)C4=O)n2)s1` (stereo not drawn) [DD.03.107] was tested. Which logFC ([3]; experiment wp147, 4 uM) did it give?
Answer: −1.113

Question: What about the logFC [3, 9] of the same compound?
Answer: −1.113
